In PMC9467556, “Identification of novel pyrrolopyrimidine and pyrrolopyridine derivatives as potent ENPP1 inhibitors” (Journal of Enzyme Inhibition and Medicinal Chemistry, 2022):
Structures can show the parent of a compound that is named as a salt.

How the values were obtained:
[1] = target: CYP2C19 (Homo sapiens, UniProt P33261); assay: CYP inhibition profile; type: in vitro ADME; details: compound 10 μM
Excerpt: Table 3. CYP inhibition profile. | column: % inhibition / CYP2C19

[2] = test system: 4T1 syngeneic mouse tumour model; assay: 4T1 syngeneic mouse tumour model efficacy; type: in vivo; details: 40 mg/kg orally once daily, day 14, 4T1 tumour in BALB/c mice
Protocol: (§1) Thus, we evaluated the anti-cancer efficacy in the 4T1 syngeneic mouse tumour model to test the therapeutic potential of 18p. We postulated the marginal amount of cGAMP released by tumour could initiate the synergy effect of 18p, then administrated the compound by single-treatment[5]. After 4T1 tumour cells were implanted and grown in the flank of mice, 18p was orally administered (40 mg/kg) once daily and monitored the tumour volume and body weight of each mouse.
(§2) Figure 7. 4 × 10^5 of 4T1 cells were subcutaneously inoculated into right side flank of BLAB/c mice (n = 6). Mice were orally administrated by 18p (40 mg/kg) or vehicle by every day. (a) Tumour growth curve of 18p or vehicle. X-axis indicates days after treatment. (b) Tumour growth (%) on day 14. (c) Body weight of 18p or vehicle. X-axis indicates days after treatment. Statistics for tumour volume and tumour growth were analysed by 2way ANOVA and student t-test. *p < 0.05. **p < 0.01. Graphs are depicted by mean and SD.
(§3) The study for murine 4T1 […] was approved by the Institutional Animal Care and Use Committee (IACUC) of the Korea Institute of Science and Technology (KIST-2021–04-048). Female BALB/c mice were 8 weeks obtained from DBL (Korea). […] Tumour volume was calculated by following formula: Tumour volume (mm^3) = 0.5 × [length, (mm) × width, (mm)2].

[3] = body weight in 4T1 syngeneic mouse tumour model; type: in vivo, BALB/c mice; details: 40 mg/kg orally once daily, two weeks, 4T1 tumour-bearing mice
Protocol: as §1, §2, §3

[4] = liver microsomal stability; type: in vitro ADME, human; details: % remaining during 30 min at 1 µM
[5] = target: CYP2C9 (Homo sapiens, UniProt P11712); assay: CYP inhibition profile; type: in vitro ADME; details: compound 10 μM
Excerpt: Table 3. CYP inhibition profile. | column: % inhibition / CYP2C9

CYP2C9, sequence (P11712 whole entry): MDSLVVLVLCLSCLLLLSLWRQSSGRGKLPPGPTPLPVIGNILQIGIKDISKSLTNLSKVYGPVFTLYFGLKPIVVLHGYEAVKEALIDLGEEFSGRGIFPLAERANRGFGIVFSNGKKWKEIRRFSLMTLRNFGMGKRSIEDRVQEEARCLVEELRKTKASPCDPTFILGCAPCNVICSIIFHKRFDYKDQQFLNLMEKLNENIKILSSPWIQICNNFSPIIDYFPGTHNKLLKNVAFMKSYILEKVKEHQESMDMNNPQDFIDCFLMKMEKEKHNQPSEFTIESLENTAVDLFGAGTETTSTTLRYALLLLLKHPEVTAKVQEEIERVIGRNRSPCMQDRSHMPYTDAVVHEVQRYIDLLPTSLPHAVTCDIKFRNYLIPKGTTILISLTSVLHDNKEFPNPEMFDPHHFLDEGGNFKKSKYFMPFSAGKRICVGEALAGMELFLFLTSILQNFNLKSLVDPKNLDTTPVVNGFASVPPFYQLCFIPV
CYP2C19, sequence (P33261 whole entry): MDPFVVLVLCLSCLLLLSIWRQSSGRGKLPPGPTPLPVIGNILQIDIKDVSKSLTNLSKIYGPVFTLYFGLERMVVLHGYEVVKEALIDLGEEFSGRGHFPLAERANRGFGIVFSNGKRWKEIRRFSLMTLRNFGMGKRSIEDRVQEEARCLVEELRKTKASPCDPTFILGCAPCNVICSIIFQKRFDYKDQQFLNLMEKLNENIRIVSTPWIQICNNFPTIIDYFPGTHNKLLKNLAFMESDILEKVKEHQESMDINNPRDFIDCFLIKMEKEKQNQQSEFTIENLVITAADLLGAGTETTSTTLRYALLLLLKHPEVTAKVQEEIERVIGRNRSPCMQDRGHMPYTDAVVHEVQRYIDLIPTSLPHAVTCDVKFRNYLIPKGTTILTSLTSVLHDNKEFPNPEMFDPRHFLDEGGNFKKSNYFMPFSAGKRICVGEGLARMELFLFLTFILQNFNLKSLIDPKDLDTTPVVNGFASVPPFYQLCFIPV

CC1(CNS(N)(=O)=O)CCN(c2ncnc3[nH]ccc23)CC1 [18p, N-((4-Methyl-1-(7H-pyrrolo[2,3-d]pyrimidin-4-yl)piperidin-4-yl)methyl)methanesulfamide hydrochloride]
% inhibition CYP2C19 [1]: 10.3% | TGI [2]: 39% | body weight [3]: no weight loss | Microsomal stability (%) Human [4]: 93% | % inhibition CYP2C9 [5]: 0.0%
